Measurements: patent US20230381142A1, “ANTILEISHMANIAL COMPOUNDS, COMPOSITIONS AND USE THEREOF” (TRUSTEES OF BOSTON UNIVERSITY, priority 2022, published 2023)
In brackets after ≈: the same amount, converted by molar mass. Read-outs that look alike come from different tables or passages of the source. Marks after values point to notes of the source that are not given here.

How the values were obtained:
[1] = UCSD infection assay, host cell cytotoxicity (CC50); assay type: cell-based; conditions: mouse, B10R host cells infected with L. donovani; footnote d
[2] = test system: L. donovani intracellular amastigotes in B10R cells; assay: UCSD L. donovani infection assay (Assay Conditions D); assay type: cell-based; conditions: for L. donovani amastigotes EC75 (B10R cells): footnote d; for EC50 / IC50: Leishmania donovani
Method in brief: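 B10R cells (300/well) infected with stationary-phase L. donovani WT promastigotes at 20 parasites/cell in DMEM high-glucose, 5% FBS, with compounds 72 h at 37° C., 5% CO2. Formaldehyde-fixed, DAPI-stained, imaged by high-content microscopy; 10-point 2-fold dilutions (screen at 10 μM) gave EC50 and host CC50.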

[3] = GSK inMac assay, host cell toxicity readout (LD MAC); assay type: cell-based, human; conditions: human; footnote c; read-out: THP-1 Host Cell CC50
Method in brief: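 Intramacrophage L. donovani assay in THP-1 macrophages; host toxicity taken from host cell number per well, giving MAC EC50. Run alongside amastigote-per-cell and infected-cell readouts in the same wells.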

[4] = test system: L. major (strain Friedlin) in J774 cells; assay: J774 luciferase infection assay (Assay Conditions E); assay type: cell-based, Leishmania major; conditions: values marked e
Procedure: (§1) Assay Conditions E: J774 cells (ATCC J774A.1 were grown in DMEM supplemented with 10% Fetal Bovine Serum (FBS) and 1% Penicillin-Streptomycin at 37° C. in 5% CO2. Leishmania parasites expressing luciferase and GFP were grown as described in Front. Cell. Infect. Microbiol (2019) 9:237. J774 cells were seeded in microwell plates at 3×10^5 cells/mL density. Cells were washed with PBS and incubated with complete DMEM medium containing stationary phase Leishmania promastigotes (L. major: strain Friedlin; L. braziliensis, strain BA788) at a 1:10 parasite-cell ratio for 24 h. Cells were washed with PBS. Cells and compounds were incubated for 48 h at 37° C. and 5% C02. Compounds were tested in 8-point 2-fold serial dilution in 4 technical replicates, and 2 biological replicates. After 48 h, OneTiterGlo (Promega) (100 μl) was added to each well. Plates were incubated for 15 min and bioluminescence was measured using a plate reader (Molecular Devices). Effective concentration inducing 75% activity (EC75) was calculated using GraphPad Prism Software (version 9.0).

[5] = test system: L. braziliensis (strain BA788) in J774 cells; assay: as above; assay type: cell-based, Leishmania braziliensis; conditions: footnote e
Procedure: as §1

[6] = test system: L. donovani intracellular amastigotes infecting THP-1 macrophages; assay: GSK intramacrophage L. donovani assay (LD AMMAC, inMac; Assay Conditions C); assay type: cell-based; conditions: Leishmania donovani; for EC50: THP-1 cells, values marked c, read-out: L. donovani amastigotes EC50 (THP-1 cells); for IC50: THP-1
Method in brief: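 L. donovani amastigotes within THP-1 macrophages; EC50 based on average intracellular amastigotes per infected cell (AMMAC). Infected-cell percentage (INFCELL) and host-cell number (MAC) also read, the latter as toxicity output.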

[7] = test system: L. braziliensis-infected macrophages; assay: Macrophage (BMDM) infection with L. braziliensis and exposure to CMLDs; assay type: cell-based, Leishmania braziliensis
Procedure: Leishmania braziliensis (MIHOM/BR/00/BA788) and L. major (Friedlin) promastigotes were maintained in Schneider's medium (SIGMA) supplemented with 10% heat-inactivated FCS, 100 U/ml penicillin, 100 μg/ml streptomycin (all from Invitrogen).
BMDM were obtained as described above. Cells were resuspended in DMEM medium supplemented with 100 U/mL penicillin, […] streptomycin, and 10% heat-inactivated Fetal Bovine Serum (all from Invitrogen) and seeded at a density of 3×10^5 cells per well in 24-well culture plates. Monolayers received 3×10^6 cells L. braziliensis promastigotes and were incubated at 37° C. in supplemented DMEM medium for 24 h. Infected macrophages were then washed to remove non-internalized parasites. Compounds CMLD 011128, CMLD010947, CMLD010498, and CMLD011494 were added at different concentrations. After 24 hours, cells were extensively washed, fixed and stained with hematoxylin and eosin (H&E). The number of infected cells and of intracellular amastigotes were counted by optical microscopy in 200 macrophages. Positive controls consisted of cultures treated with Amphotericin B (0.25 μg/mL, Invitrogen). Cultures were performed in quintuplicate. Alternatively, infected macrophages were treated as described, monolayers were extensively washed and the medium was replaced by 0.5 ml of supplemented Schneider medium. Cells were cultured for seven additional days at 26° C., when number of viable promastigotes was determined using hemocytometer.
Results were expressed as the mean percentage reduction of infected cells compared with untreated control wells. Half-maximal effective concentrations (EC50) were determined by sigmoidal regression curves using Prism 7.0 software (GraphPad Software Inc.)

[8] = Property forecast index (PFI = ChromLogD7.4 + aromatic rings); assay type: physicochemical
[9] = UCSD infection assay, host cell cytotoxicity (CC50); assay type: cell-based; conditions: host macrophages infected with L. donovani; cytotoxicity against host macrophages
[10] = Kinetic aqueous solubility by CAD; assay type: physicochemical; conditions: aqueous medium, kinetic from dmso stock, high-throughput CAD
Procedure: Solubility of compounds using ChemiLuminescent Nitrogen Detection (CLND) was measured as described. Solubility of compounds using Charged Aerosol Detection (CAD) was measured as described. Solubility of solid compounds in Fasted Simulated Intestinal Fluid (FaSSIF) was measured as described.

human serum albumin = human serum albumin (Homo sapiens, UniProt P02768); assay: Human serum albumin (HSA) binding, chromatographic; assay type: in vitro ADME
Procedure: The percentage of compound bound to human serum albumin was measured using a chromatographic method as described. Briefly, each compound was assayed on an immobilized HSA column and gradient retention times measured, with chromatographic peak detection by UV. Each retention time was then converted to a % HSA bound value using a calibration set of compounds with a known % HSA binding.

[11] = B10R cells, values marked d, read-out: L. donovani amastigotes EC50 (B10R cells)
[12] = average of two biological replicates, read-out: L. donovani EC50 (UCSD assay)

Chain of human serum albumin (P02768 25-609): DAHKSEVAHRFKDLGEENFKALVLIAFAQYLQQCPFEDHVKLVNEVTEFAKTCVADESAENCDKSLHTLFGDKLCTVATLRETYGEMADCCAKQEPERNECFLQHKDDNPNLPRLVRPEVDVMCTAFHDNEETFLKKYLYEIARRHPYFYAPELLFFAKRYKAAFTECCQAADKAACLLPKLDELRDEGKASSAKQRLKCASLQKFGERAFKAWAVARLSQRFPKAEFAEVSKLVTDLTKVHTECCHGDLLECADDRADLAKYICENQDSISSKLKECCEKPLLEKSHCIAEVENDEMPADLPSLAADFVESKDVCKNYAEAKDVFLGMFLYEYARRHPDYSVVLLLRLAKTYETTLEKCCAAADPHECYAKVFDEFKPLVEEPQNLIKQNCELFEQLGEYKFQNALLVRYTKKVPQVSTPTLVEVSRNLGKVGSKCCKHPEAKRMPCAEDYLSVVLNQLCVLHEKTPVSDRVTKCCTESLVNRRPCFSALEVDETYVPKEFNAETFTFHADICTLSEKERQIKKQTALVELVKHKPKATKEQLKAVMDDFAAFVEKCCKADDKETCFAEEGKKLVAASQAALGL

SMILES	CC50 at 72 h [1]	L. donovani amastigotes EC75 (B10R cells) ([2]; B10R cells)	EC50 [2, 11]	CC50 [3]	L. major amastigotes EC75 (J774 cells) [4]	L. braziliensis amastigotes EC75 (J774 cells) [5]	EC50 [6]	leishmanicidal effect on L. braziliensis infection in vitro [7]	percentage of infected macrophages ([7]; L. braziliensis, 24 h exposure)	PFI [8]	CC50 at 72 h [9]	EC50 [2, 12]	solubility [10]	HSA Binding (human serum albumin)	IC50 [6]	IC50 [2]
COc1ccc(N2C(=O)c3[nH]nc(CC(C)C)c3C2c2ccccc2Cl)cn1 (stereo not shown) [BUCMD00686]	10 µM	0.5 µM	1.1 µM	9.9 µM	>10^e μM	1.0 µM										
COc1ccc(N2C(=O)c3[nH]nc(CC(C)C)c3C2c2ccc(F)cc2)cc1F (stereo not shown) [CMLD010884]	20 µM	0.8 µM		25.1 µM	7.2^e μM	>10 µM	1.3 µM									
COc1ccc(N2C(=O)c3[nH]nc(CC(C)C)c3C2c2ccccc2Cl)cc1 (stereo not shown) [CMLD010893]	6.31 µM	0.3 µM		20 µM	8.3^e μM	>10 µM	1.3 µM									
CC(C)Cc1n[nH]c2c1C(c1ccc(F)cc1)N(c1ccc3c(c1)OCO3)C2=O (stereo not shown) [CMLD010901]	12.6 µM	0.4 µM		25.1 µM	6.0^e μM	8.7 µM	0.6 µM									
CC(C)Cc1n[nH]c2c1C(c1ccccc1Cl)N(c1ccc3c(c1)OCO3)C2=O (stereo not shown) [CMLD010902]			0.2 µM	12.2 µM	7.3^e μM	>10 µM										
COc1ccc(N2C(=O)c3[nH]nc(CC(C)C)c3[C@@H]2c2ccc(F)cc2)cc1 [CMLD011128]		0.5 µM		> 20 µM		7.5 µM	0.8 µM	did not show leishmanicidal effects	did not decrease							
CC(C)Cc1n[nH]c2c1C(c1ccccc1Br)N(c1ccc3c(c1)OCO3)C2=O (stereo not shown) [CMLD011548]			0.3 µM	> 20 µM	1.8^e μM	5.2 µM										
CC(C)Cc1n[nH]c2c1C(c1ccccc1Br)N(c1ccc(N(C)C)cc1)C2=O (stereo not shown) [CMLD011554]	6.31 µM	0.1 µM	0.1 µM	5.7 µM	5.2^c μM	2.9 µM										
Cc1cc(F)ccc1C1c2c(CC(C)C)n[nH]c2C(=O)N1c1ccc(N(C)C)cc1 (stereo not shown) [CMLD011561]	7.94 µM	0.1 µM	0.1 µM	7.5 µM	1.9^e μM	2.1 µM										
COc1ccc(N2C(=O)c3[nH]nc(CC(C)C)c3C2c2ccc(F)cc2C)cc1F (stereo not shown) [CMLD011562]	10 µM	0.2 µM	0.2 µM	10.9 µM	2.7^e μM	5.2 µM										
Cc1cc(F)ccc1C1c2c(CC(C)C)n[nH]c2C(=O)N1c1ccc2c(c1)OCO2 (stereo not shown) [CMLD011564]	12.6 µM	0.1 µM	0.1 µM	12.1 µM	1.4^e μM	4.9 µM										
COc1cc(F)ccc1C1c2c(CC(C)C)n[nH]c2C(=O)N1c1ccc(N(C)C)cc1 (stereo not shown) [CMLD011572]	10 µM			8.5 µM	1.3^e μM	1.9 µM										
COc1ccc(N2C(=O)c3[nH]nc(CC(C)C)c3C2c2ccc(F)cc2OC)cn1 (stereo not shown) [CMLD011574]		0.3 µM	0.3 µM	> 20 µM	4.8^e μM	8.2 µM										
COc1cc(F)ccc1C1c2c(CC(C)C)n[nH]c2C(=O)N1c1ccc(N(C)C)cc1 (stereo not shown) [Compound 82, 5-(4-(dimethylamino)phenyl)-4-(4-fluoro-2-methoxyphenyl)-3-isobutyl-4,5-dihydropyrrolo[3,4-c]pyrazol-6(1H)-one]										8.8	8.5 µM	0.04 µM	45 µM (≈ 19 µg/mL)	97.1%	4 µM	
COc1ccc(N2C(=O)c3[nH]nc(CC(C)C)c3C2c2ccccc2OC)cn1 (stereo not shown) [Compound 85, 3-isobutyl-4-(2-methoxyphenyl)-5-(6-methoxypyridin-3-yl)-4,5-dihydropyrrolo[3,4-c]pyrazol-6(1H)-one]										8.0	> 20 µM	1.11 µM	176 µM (≈ 69.1 µg/mL)	93.9%	7.9 µM	1.1 µM
Cc1cc(F)ccc1C1c2c(CC(C)C)n[nH]c2C(=O)N1c1ccc2ncnn2c1 (stereo not shown) [Compound 89, 5-([1,2,4]triazolo[1,5-a]pyridin-6-yl)-4-(4-fluoro-2-methylphenyl)-3-isobutyl-4,5-dihydropyrrolo[3,4-c]pyrazol-6(1H)-one]										8.1	> 20 µM	0.87 µM	< 1 µM	93.2%	1.6 µM	0.9 µM
